In one assay the target is T1, human TGR5 receptor (Homo sapiens, UniProt Q8TDU6).
T1 construct: host or cells: CHO-K1 (hTGR5-CHO)
T1 sequence (Q8TDU6 1-330): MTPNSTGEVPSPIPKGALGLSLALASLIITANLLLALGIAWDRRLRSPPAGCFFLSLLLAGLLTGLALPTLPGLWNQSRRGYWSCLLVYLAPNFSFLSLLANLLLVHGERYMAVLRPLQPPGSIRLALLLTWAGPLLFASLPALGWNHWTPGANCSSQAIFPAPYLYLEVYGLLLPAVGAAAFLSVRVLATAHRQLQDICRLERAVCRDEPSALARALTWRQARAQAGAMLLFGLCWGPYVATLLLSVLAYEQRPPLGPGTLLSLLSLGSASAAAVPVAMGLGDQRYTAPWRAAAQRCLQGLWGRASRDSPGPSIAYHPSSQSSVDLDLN
In words: Human TGR5 cAMP production assay (hTGR5-CHO cells, DiscoveRx cAMP XS+ kit). Format: cell-based. As to conditions: luminescent cAMP assay, read-out: Human TGR5 Lum. cAMP Activity (EC50). The method, boiled down:
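EC50 values come from luminescent enzyme-complementation cAMP detection, read after overnight incubation. Beforehand, hTGR5-expressing CHO-K1 cells with IBMX and anti-cAMP antibody were exposed 1 h at room temperature to serially diluted (half-log) compounds.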
Background: cAMP levels reflect the balance of adenylyl cyclase and phosphodiesterase activity.

A further assay has as its target T2, mouse TGR5 receptor (Mus musculus, UniProt Q80SS6).
T2 construct: host or cells: HEK293-EBNA (293 c18, ATCC CRL10852)
T2 sequence (Q80SS6 1-329): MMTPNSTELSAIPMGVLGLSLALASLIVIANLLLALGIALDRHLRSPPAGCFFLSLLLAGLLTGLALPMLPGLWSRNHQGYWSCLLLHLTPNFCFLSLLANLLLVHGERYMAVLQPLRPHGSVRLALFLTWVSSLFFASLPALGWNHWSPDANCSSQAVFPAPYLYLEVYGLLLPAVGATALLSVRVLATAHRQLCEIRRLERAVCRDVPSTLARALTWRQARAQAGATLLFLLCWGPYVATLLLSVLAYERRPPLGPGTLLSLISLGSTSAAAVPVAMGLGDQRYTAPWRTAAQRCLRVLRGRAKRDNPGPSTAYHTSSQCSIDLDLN
In words: Mouse TGR5 HTRF cAMP production assay (HEK293-EBNA cells, Cisbio cAMP HiRange kit). To be noted: HEK293-EBNA cells overexpressing mouse TGR5, HTRF cAMP assay. In kind it is cell-based. The method, boiled down:
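cAMP accumulation was read by competitive HTRF after 1 h room-temperature compound treatment, with a further 1 h conjugate incubation. Cells were mouse TGR5-overexpressing HEK293-EBNA in serum-free DMEM plus 500 μM IBMX. Compounds ran as 12-point half-log series in duplicate, and EC50 values were reported.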

As usually defined, the EC50 is the concentration needed to bring the measured effect to its halfway point. For `O=C(CCC1CCN(c2cc(N3CC[C@H]3C(=O)NCCc3ccc(C(F)(F)F)cc3)nc(C(F)(F)F)n2)CC1)NCCS(=O)(=O)O` [Compound 254, (S)-2-(3-(1-(2-(trifluoromethyl)-6-(2-((4-(trifluoromethyl)-phenethyl)carbamoyl)azetidin-1-yl)pyrimidin-4-yl)piperidin-4-yl)propanamido)ethanesulfonic acid], the figures for the EC50 on human TGR5 receptor and at mouse TGR5 receptor were 100 to 999 nM and < 100 nM, respectively.

Take `N#Cc1ccccc1CCNC(=O)[C@@H]1CCCN1c1cc(N2CCC(CCCC(=O)NCS(=O)(=O)O)CC2)nc(C(F)(F)F)n1` [Compound 366, (S)-(4-(1-(6-(2-((2-cyanophenethyl)carbamoyl)pyrrolidin-1-yl)-2-(trifluoromethyl)pyrimidin-4-yl)piperidin-4-yl)butanamido)methanesulfonic acid]: the 50% effective concentration (EC50) at human TGR5 receptor and at mouse TGR5 receptor was < 100 nM throughout.

Take `CCOC(=O)CCNC(=O)N1CCN(c2cc(N3CCC[C@@H](C(=O)NCCc4ccc(C(F)(F)F)cc4)C3)nc(C(F)(F)F)n2)CC1` [Compound 343, (R)-ethyl 3-(4-(2-(trifluoromethyl)-6-(3-((4-(trifluoromethyl)phenethyl)carbamoyl)-piperidin-1-yl)pyrimidin-4-yl)piperazine-1-carboxamido)propanoate]: the results for the EC50 at human TGR5 receptor and at mouse TGR5 receptor were 100 to 999 nM and < 100 nM, respectively.

`COC(=O)C(=O)N1CCN(c2cc(N3CCC[C@@H](C(=O)NCCc4ccc(C(F)(F)F)cc4)C3)nc(C(F)(F)F)n2)CC1` [Compound 339, (R)-methyl 2-oxo-2-(4-(2-(trifluoromethyl)-6-(3-((4-(trifluoromethyl)phenethyl)-carbamoyl)piperidin-1-yl)pyrimidin-4-yl)piperazin-1-yl)acetate]: the EC50 lay in the range of 1000 to 30000 nM on human TGR5 receptor and 100 to 999 nM on mouse TGR5 receptor.

Take `N#Cc1ccc(CCNC(=O)[C@@H]2CCCN(c3cc(N4CCC(CCN)CC4)nc(C(F)(F)F)n3)C2)cc1` [Compound 345, (R)-1-(6-(4-(2-aminoethyl)piperidin-1-yl)-2-(trifluoromethyl)pyrimidin-4-yl)-N-(4-cyanophenethyl)piperidine-3-carboxamide]: the concentration for a half-maximal effect (EC50) at human TGR5 receptor and at mouse TGR5 receptor was < 100 nM in each case.

Turning to `O=C(O)CCNC(=O)NCCC1CCN(c2cc(N3CCC[C@H]3C(=O)NCCc3ccc(-c4ccncc4)cc3)nc(C(F)(F)F)n2)CC1` [Compound 376, (S)-3-(3-(2-(1-(6-(2-((4-(pyridin-4-yl)phenethyl)carbamoyl)pyrrolidin-1-yl)-2-(trifluoromethyl)pyrimidin-4-yl)piperidin-4-yl)ethyl)ureido)propanoic acid], the values for the EC50 on human TGR5 receptor and on mouse TGR5 receptor were 100 to 999 nM and < 100 nM, respectively.

In the case of `N#Cc1ccc(CCNC(=O)[C@@H]2CCN2c2cc(N3CCC(CCCC(=O)NCCO)CC3)nc(C(F)(F)F)n2)cc1` [Compound 361, (S)-N-(4-cyanophenethyl)-1-(6-(4-(4-((2-hydroxyethyl)amino)-4-oxobutyl)piperidin-1-yl)-2-(trifluoromethyl)pyrimidin-4-yl)azetidine-2-carboxamide], the EC50 at human TGR5 receptor and at mouse TGR5 receptor was < 100 nM each time.

In the case of `Cc1ccsc1-c1cc(N2CCC[C@H]2C(=O)NCCc2ccc(C#N)cc2)nc(C(F)(F)F)n1` [Compound 172, (S)-N-(4-cyanophenethyl)-1-(6-(3-methylthiophen-2-yl)-2-(trifluoromethyl)pyrimidin-4-yl)pyrrolidine-2-carboxamide], the EC50 at human TGR5 receptor and at mouse TGR5 receptor was 100 to 999 nM throughout.

For the compound `N#Cc1ccc(CCNC(=O)[C@@H]2CCCN2c2cc(N3CCC(CCCC(=O)NCCNc4ncnc5c4ncn5[C@@H]4O[C@H](CO)C(O)C4O)CC3)nc(C(F)(F)F)n2)cc1` (stereo partly drawn) [Compound 97, (2S)-N-(4-cyanophenethyl)-1-(6-(4-(4-((2-((9-((2R,5R)-3,4-dihydroxy-5-(hydroxymethyl)tetrahydrofuran-2-yl)-9H-purin-6-yl)amino)ethyl)amino)-4-oxobutyl)piperidin-1-yl)-2-(trifluoromethyl)-pyrimidin-4-yl)pyrrolidine-2-carboximide], the EC50 on human TGR5 receptor and at mouse TGR5 receptor was < 100 nM each time.

In the case of `N#Cc1ccc(CCNC(=O)[C@@H]2CCCN2c2cc(N3CCC(CCCC(=O)NCCNC(=O)c4cc(NC[C@H](O)[C@@H](O)[C@H](O)[C@H](O)CO)ncn4)CC3)nc(C(F)(F)F)n2)cc1` [Compound 100, N-(2-(4-(1-(6-((S)-2-((4-cyanophenethyl)carbamoyl)pyrrolidin-1-yl)-2-(trifluoromethyl)pyrimidin-4-yl)piperidin-4-yl)butanamido)ethyl)-6-(((2S,3R,4R,5R)-2,3,4,5,6-pentahydroxyhexyl)amino)-pyrimidine-4-carboxamide], the results for the EC50 on human TGR5 receptor and at mouse TGR5 receptor were 100 to 999 nM and < 100 nM, respectively.

On to `COCCC1CCN(c2cc(N3CCC[C@H]3C(=O)NCCc3ccc(C#N)cc3)nc(C(F)(F)F)n2)CC1` [Compound 25], for which the concentration for a half-maximal effect (EC50) at human TGR5 receptor and on mouse TGR5 receptor was < 100 nM in each case.

For the compound `CN(CCS(=O)(=O)O)C(=O)CCC1CCN(c2cc(N3CC[C@H]3C(=O)NCCc3ccc(C(F)(F)F)cc3)nc(C(F)(F)F)n2)CC1` [Compound 252, (S)-2-(N-methyl-3-(1-(2-(trifluoromethyl)-6-(2-((4-(trifluoromethyl)phenethyl)carbamoyl)azetidin-1-yl)pyrimidin-4-yl)piperidin-4-yl)propanamido)ethanesulfonic acid], the EC50 at human TGR5 receptor and at mouse TGR5 receptor was < 100 nM each time.

For `O=C(O)CCNC(=O)NCCC1CCN(c2cc(N3CCC[C@H]3C(=O)NCCc3ccc(-c4ccccn4)cc3)nc(C(F)(F)F)n2)CC1` [Compound 378, (S)-3-(3-(2-(1-(6-(2-((4-(pyridin-2-yl)phenethyl)carbamoyl)pyrrolidin-1-yl)-2-(trifluoromethyl)pyrimidin-4-yl)piperidin-4-yl)ethyl)ureido)propanoic acid], the EC50 on human TGR5 receptor and at mouse TGR5 receptor was 1000 to 30000 nM throughout.

For the compound `CCOC(=O)CCNC(=O)NCCC1CCN(c2cc(N3CCC[C@H]3C(=O)NCCc3ccc(C#N)cc3)nc(C(F)(F)F)n2)CC1` [Compound 55, (S)-ethyl 3-(3-(2-(1-(6-(2-((4-cyanophenethyl)carbamoyl)pyrrolidin-1-yl)-2-(trifluoromethyl)pyrimidin-4-yl)piperidin-4-yl)ethyl)ureido)propanoate], the EC50 on human TGR5 receptor and at mouse TGR5 receptor was < 100 nM in each case.

On to `N=C(N)N1CCC(CCCC2CCN(c3cc(N4CC[C@H]4C(=O)NCCc4ccc(C(F)(F)F)cc4)nc(C(F)(F)F)n3)CC2)CC1` [Compound 288, (S)-1-(6-(4-(3-(1-carbamimidoylpiperidin-4-yl)propyl)piperidin-1-yl)-2-(trifluoromethyl)pyrimidin-4-yl)-N-(4-(trifluoromethyl)phenethyl)-azetidine-2-carboxamide], for which the half-maximal effective concentration (EC50) is 100 to 999 nM on human TGR5 receptor and < 100 nM on mouse TGR5 receptor.

On to `N#Cc1ccc(CCNC(=O)[C@@H]2CCCN2c2cc(N3CCC(CCCO)CC3)nc(C(F)(F)F)n2)cc1` [Compound 23], for which the EC50 at human TGR5 receptor and at mouse TGR5 receptor was < 100 nM throughout.

As for `N#CCCN1CCN(c2cc(N3CCC[C@@H](C(=O)NCCc4ccc(C#N)cc4)C3)nc(C(F)(F)F)n2)CC1` [Compound 316, (R)-1-(6-(4-(2-cyanoethyl)piperazin-1-yl)-2-(trifluoromethyl)pyrimidin-4-yl)-N-(4-cyanophenethyl)piperidine-3-carboxamide], the EC50 on human TGR5 receptor and on mouse TGR5 receptor was < 100 nM throughout.

In the case of `N#CCCC1CCN(c2cc(N3CCC[C@@H](C(=O)NCCc4ccc(C#N)cc4)C3)nc(C(F)(F)F)n2)CC1` [Compound 311, (R)-1-(6-(4-(2-cyanoethyl)piperidin-1-yl)-2-(trifluoromethyl)pyrimidin-4-yl)-N-(4-cyanophenethyl)piperidine-3-carboxamide], the EC50 at human TGR5 receptor and at mouse TGR5 receptor was < 100 nM in each case.

For `O=C(CCCC1CCN(c2cc(N3CCC[C@H]3C(=O)NCCc3ccc(-c4ccncc4)cc3)nc(C(F)(F)F)n2)CC1)NCS(=O)(=O)O` [Compound 353, (S)-(4-(1-(6-(2-((4-(pyridin-4-yl)phenethyl)carbamoyl)pyrrolidin-1-yl)-2-(trifluoromethyl)pyrimidin-4-yl)piperidin-4-yl)butanamido)methanesulfonic acid], the EC50 at human TGR5 receptor and on mouse TGR5 receptor was < 100 nM each time.

(Values after patent publication US10654834B2 (Venenum Biodesign, LLC, priority 2016, dated 2020).)
